Consider six compounds from ChEMBL document CHEMBL3867434, “Regiospecific Prenylation of Hydroxyxanthones by a Plant Flavonoid Prenyltransferase” (J Nat Prod, 2016).

Active and inactive are the calls of the source. The calls are words filed in the database; no cut-off is given here.

A short description of the first experiment: Neuroprotective activity in human SK-N-SH cells assessed as inhibition of glutamate-induced injury by measuring increase in cell viability at 10 uM preincubated for 4 hrs followed by glutamate addition measured after 4 hrs by MTT assay. The format is functional, cell-based.
For `O=c1c2c(O)cc(O)cc2oc2cc(O)cc(O)c12`, the outcome was Active.

Take `O=c1c2cc(O)ccc2oc2cc(O)cc(O)c12`: the outcome was Active.

As for `CC(C)=CCc1c(O)cc2oc3ccc(O)cc3c(=O)c2c1O`, the result was Active.

As for `CC(C)=CCc1c(O)cc2oc3cc(O)cc(O)c3c(=O)c2c1O`, the outcome was Active.

On to `CC(C)=CCc1c(O)cc2oc3cc(O)c(CC=C(C)C)c(O)c3c(=O)c2c1O`, for which the outcome was Active.

A further experiment in a line: Neuroprotective activity in human SK-N-SH cells assessed as inhibition of glutamate-induced injury by measuring cell survival at 10 uM preincubated for 4 hrs followed by glutamate addition measured after 4 hrs by MTT assay relative to control. It is filed as functional, cell-based. A general note: Tetrazolium assays rely on reduction of a dye to a coloured formazan, in cell work by metabolically active cells.
On to `Oc1ccc(/C=C/c2cc(O)cc(O)c2)cc1`, for which the Survival was determined as 79.9%.

For `CC(C)=CCc1c(O)cc2oc3ccc(O)cc3c(=O)c2c1O`, the Survival came to 82.9%.
